Results on 1 compound are retold here after ChEMBL document CHEMBL1681659, “Discovery of novel positive allosteric modulators of the metabotropic glutamate receptor 5 (mGlu5)” (Bioorg Med Chem Lett, 2011).

Series [1] can be described thus: Chemical stability assessed as compound remaining after 1 hr by photolysis assay. Type of series: physicochemical. As to conditions: read-out: Stability.
Series [2] can be described thus: Intrinsic clearance in rat liver microsome. The series is classed as ADME. As to conditions: liver microsomes.
The nature of series [3]: Chemical stability of the compound assessed as half life at pH 1. Type of series: physicochemical. As to conditions: buffer.
A short description of series [4]: Chemical stability of the compound assessed as half life at pH 10. The series is classed as physicochemical. As to conditions: buffer.
Series [5] in a line: Intrinsic clearance in human liver microsome. Type of series: ADME. As to conditions: liver microsomes. (Microsomes from liver hold many membrane-bound enzymes, among them those of drug oxidation.)

With `O=C1CCOc2nc(C#Cc3ccccc3)ccc21`, the remaining at 1 h in series [1] is 0%. The microsomal CLint in series [2] is 95 µL/min/mg; in series [5], 120 µL/min/mg. Besides, the half-life in series [3] is 278 h; in series [4], 24 h.

One may read the microsomal CLint as a measure of how fast metabolising enzymes remove a compound, apart from limits set by blood flow. A high value points to rapid turnover. One may read the half-life as the time needed for the level to fall by half in the phase considered.
